In patent US9045470B2, “Compounds and compositions as TLR activity modulators” (IRM LLC, priority 2009, dated 2015):
pEC50: −log10 of the molar value. Like-named read-outs stand apart in the source and are kept apart here.

Columns and labels:
human TLR7 = molecular target: T1, human TLR7 (Homo sapiens, UniProt Q9NYK1); test: Reporter gene assay: HEK293 cells stably transfected with human TLR7 and NF-kB-driven luciferase reporter; format: cell-based; details: for EC50: HEK293 stably transfected with human TLR7 and NF-kB luciferase reporter, 7 hours incubation, relative to resiquimod set to 100%, read-out: Human TLR7 EC50 (nM) HEK293
T1 construct: expressed in transfected cells; host or cells: HEK 293 (human embryonic kidney 293), stably transfected; co-transfected pNifty-Luciferase reporter
T1 sequence (Q9NYK1 27-1049): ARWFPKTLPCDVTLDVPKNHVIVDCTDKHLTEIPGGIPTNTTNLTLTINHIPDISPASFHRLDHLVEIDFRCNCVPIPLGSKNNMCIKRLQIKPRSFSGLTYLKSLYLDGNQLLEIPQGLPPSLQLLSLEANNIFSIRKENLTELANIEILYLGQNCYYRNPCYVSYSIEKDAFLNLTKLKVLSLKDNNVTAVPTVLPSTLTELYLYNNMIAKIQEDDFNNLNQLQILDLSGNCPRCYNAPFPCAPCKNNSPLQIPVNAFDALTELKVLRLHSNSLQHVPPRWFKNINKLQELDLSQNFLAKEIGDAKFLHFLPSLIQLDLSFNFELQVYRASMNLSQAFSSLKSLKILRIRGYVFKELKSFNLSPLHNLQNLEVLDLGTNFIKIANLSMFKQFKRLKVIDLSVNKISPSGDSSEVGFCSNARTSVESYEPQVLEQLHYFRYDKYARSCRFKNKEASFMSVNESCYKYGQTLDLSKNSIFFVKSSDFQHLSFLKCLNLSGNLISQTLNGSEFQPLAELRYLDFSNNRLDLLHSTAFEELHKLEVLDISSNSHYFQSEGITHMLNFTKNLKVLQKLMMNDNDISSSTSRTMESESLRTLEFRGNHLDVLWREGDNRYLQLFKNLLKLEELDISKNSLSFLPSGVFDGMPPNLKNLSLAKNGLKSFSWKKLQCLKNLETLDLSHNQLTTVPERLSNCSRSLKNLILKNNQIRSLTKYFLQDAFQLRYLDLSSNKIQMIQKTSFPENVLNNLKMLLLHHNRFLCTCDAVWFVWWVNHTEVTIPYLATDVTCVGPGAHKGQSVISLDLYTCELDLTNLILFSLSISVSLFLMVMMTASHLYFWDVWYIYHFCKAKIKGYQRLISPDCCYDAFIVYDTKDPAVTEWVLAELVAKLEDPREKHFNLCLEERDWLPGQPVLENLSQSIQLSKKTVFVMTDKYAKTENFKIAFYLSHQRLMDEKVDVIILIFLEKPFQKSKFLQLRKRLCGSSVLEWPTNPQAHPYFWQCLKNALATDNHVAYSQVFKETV
Protocol: Human embryonic kidney 293 (HEK 293) cells were stably transfected with human TLR7 and an NF-kB-driven luciferase reporter vector (pNifty-Luciferase). As a control assay, normal Hek293 transfected with pNifty-Luc were used. Cells were cultured in DMEM supplemented with 2 mM L-glutamine, 10% heart inactivated FBS, 1% penicillin and streptomycin, 2 μg/ml puromycin (InvivoGen #ant-pr-5) and 5 μg/ml of blasticidin (Invitrogen #46-1120). Bright-Glo™ Luciferase assay buffer and substrate were supplied by Promega #E263B and #E264B (assay substrate and buffer respectively). 384 well clear-bottom plates were supplied by Greiner bio-one (#789163-G) and were custom bar-coded plates.
Cells were plated at 25,000 cells/well in 384-well plates in a final volume of 50 μl of media. Cells were allowed to adhere to the plates after overnight (18 hours) culture at 37° C. and 5% CO2. Serially diluted experimental and positive control compounds were then dispensed to each well and incubated for 7 hours at 37° C. and 5% CO2. Cells stimulated with DMSO alone also serve as negative controls. After the incubation, 30 μl of the pre-mix assay buffer and substrate buffer were added to each well according to manufacturer's instructions.
The EC50 value in those experiments is given as that concentration of the test compound in question that provoke a response halfway between the baseline and maximum responses. […] Such EC50 values are obtained relative to the activity of resiquimod set to 100%.

[1] = Binding to alum in 10 mM histidine buffer, LC-MS/MS of supernatant; format: physicochemical; details: 10 mM histidine buffer pH 6.8; final compound 0.1 mg/mL; 37° C. for 5 hours; 100% minus % unbound
Protocol: The resulting solution was diluted 10-fold with blank histidine buffer to a final compound concentration of 0.1 mg/mL. Diluted solutions were incubated at 37° C. for 5 hours. The samples were centrifuged at 14,000 rpm for 10 minutes to pellet the insoluble. The supernatant (along with an internal standard) was then evaluated by LC-MS/MS using a ballistic gradient (from 5% CH3CN-0.5% formic acid to 95% CH3CN-1.0% formic acid in 3.5 minutes) on a Waters Atlantis dC18 (50 mm×2.1 mm) column at room temperature against a calibration curve prepared at known compound concentrations ranging from 0.005 to 50 μM. The concentration in the supernatant was calculated as % unbound to alum compared to control; the % bound to alum was calculated as 100% minus % unbound.

| Compound | pEC50 (human TLR7) | % Alum bound in Histidine buffer [1] [%] | EC50 (human TLR7) [nM] |
| --- | --- | --- | --- |
| Cc1ccc2c(c1)nc(N)c1ncc(CCc3ccc(OCc4ccc(CP(=O)(O)O)cc4)cc3C)cc12 [Compound 25, 4-((4-(2-(5-amino-8-methylbenzo[f][1,7]naphthyridin-2-yl)ethyl)-3-methylphenoxy)methyl)benzylphosphonic acid] | 6.01 |  |  |
| Cc1ccc2c(c1)nc(N)c1ncc(CCc3ccc(OCCOCCC(F)(F)P(=O)(O)O)cc3C)cc12 [Compound 7, 3-(2-(4-(2-(5-amino-8-methylbenzo[f][1,7]naphthyridin-2-yl)ethyl)-3-methylphenoxy)ethoxy)-1,1-difluoropropylphosphonic acid] | 6.00 |  |  |
| COc1ccc(CCc2cnc3c(N)nc4cc(C(=O)P(=O)(O)O)ccc4c3c2)c(C)c1 [Compound 14, 5-amino-2-(4-methoxy-2-methylphenethyl)benzo[f][1,7]naphthyridine-8-carbonylphosphonic acid] | 6.05 |  |  |
| Cc1ccc2c(c1)nc(N)c1ncc(CCc3ccc(OCCCCP(=O)(O)O)cc3C)cc12 [Compound 28, 4-(4-(2-(5-amino-8-methylbenzo[f][1,7]naphthyridin-2-yl)ethyl)-3-methylphenoxy)butylphosphonic acid] | 6.28 |  |  |
| Cc1ccc2c(c1)nc(N)c1ncc(CCc3ccc(OCP(=O)(O)O)cc3C)cc12 [Compound 3, (4-(2-(5-amino-8-methylbenzo[f][1,7]naphthyridin-2-yl)ethyl)-3-methylphenoxy)methylphosphonic acid] | 5.50 |  |  |
| Cc1ccc2c(c1)nc(N)c1ncc(CCc3ccc(OCCOCCOCCC(F)(F)P(=O)(O)O)cc3C)cc12 [Compound 6, 3-(2-(2-(4-(2-(5-amino-8-methylbenzo[f][1,7]naphthyridin-2-yl)ethyl)-3-methylphenoxy)ethoxy)ethoxy)-1,1-difluoropropylphosphonic acid] | 5.79 | 98.2 |  |
| Cc1ccc2c(c1)nc(N)c1ncc(CCc3ccc(OCCCCCP(=O)(O)O)cc3C)cc12 [Compound 27, 5-(4-(2-(5-amino-8-methylbenzo[f][1,7]naphthyridin-2-yl)ethyl)-3-methylphenoxy)pentylphosphonic acid] | 6.04 |  |  |
| Cc1cc(OCCOCCP(=O)(O)O)ccc1CCc1cnc2c(N)nc3cc(CCC(=O)O)ccc3c2c1 [Compound 21, 3-(5-amino-2-(2-methyl-4-(2-(2-phosphonoethoxy)ethoxy)phenethyl)benzo[f][1,7]naphthyridin-8-yl)propanoic acid] |  |  | 204 |
| Cc1ccc2c(c1)nc(N)c1ncc(CCc3ccc(OCCP(=O)(O)O)cc3C)cc12 [Compound 22, 2-(4-(2-(5-amino-8-methylbenzo[f][1,7]naphthyridin-2-yl)ethyl)-3-methylphenoxy)ethylphosphonic acid] | 5.94 |  |  |
| Cc1cc(OCCOCCOCCP(=O)(O)O)ccc1CCc1cnc2c(N)nc3cc(CCC(=O)O)ccc3c2c1 [Compound 20, 3-(5-amino-2-(2-methyl-4-(2-(2-(2-phosphonoethoxy)ethoxy)ethoxy)phenethyl)benzo[f][1,7]naphthyridin-8-yl)propanoic acid] | 6.42 | 97.0 |  |
| Cc1cc(OCCOCCOCCOCCP(=O)(O)O)ccc1CCc1cnc2c(N)nc3cc(CCC(=O)O)ccc3c2c1 [Compound 18, 3-(5-amino-2-(2-methyl-4-(2-(2-(2-(2-phosphonoethoxy)ethoxy)ethoxy)ethoxy)phenethyl)benzo[f][1,7]naphthyridin-8-yl)propanoic acid] | 6.02 |  |  |
| COc1ccc(CCc2cnc3c(N)nc4cc(C(=O)C(F)(F)P(=O)(O)O)ccc4c3c2)c(C)c1 [Compound 9, 2-(5-amino-2-(4-methoxy-2-methylphenethyl)benzo[f][1,7]naphthyridin-8-yl)-1,1-difluoro-2-oxoethylphosphonic acid] | 6.41 |  |  |
| Cc1ccc2c(c1)nc(N)c1ncc(CCc3ccc(OCc4cccc(P(=O)(O)O)c4)cc3C)cc12 [Compound 13, 3-((4-(2-(5-amino-8-methylbenzo[f][1,7]naphthyridin-2-yl)ethyl)-3-methylphenoxy)methyl)phenylphosphonic acid] | 5.98 |  |  |
| COc1ccc(CCc2cnc3c(N)nc4cc(/C=C/P(=O)(O)O)ccc4c3c2)c(C)c1 [Compound 10, (E)-2-(5-Amino-2-(4-methoxy-2-methylphenethyl)benzo[f][1,7]naphthyridin-8-yl)vinylphosphonic acid] | 6.82 |  |  |
| Cc1ccc2c(c1)nc(N)c1ncc(CCc3ccc(OP(=O)(O)O)cc3C)cc12 [Compound 2, 4-(2-(5-amino-8-methylbenzo[f][1,7]naphthyridin-2-yl)ethyl)-3-methylphenyl dihydrogen phosphate] |  |  | 315 |
| COc1ccc(CCc2cnc3c(N)nc4cc(CCP(=O)(O)O)ccc4c3c2)c(C)c1 [Compound 11, 2-(5-amino-2-(4-methoxy-2-methylphenethyl)benzo[f][1,7]naphthyridin-8-yl)ethylphosphonic acid] | 7.05 |  |  |
| Cc1ccc2c(c1)nc(N)c1ncc(CCc3ccc(OCc4ccc(CC(F)(F)P(=O)(O)O)cc4)cc3C)cc12 [Compound 8, 2-(4-((4-(2-(5-amino-8-methylbenzo[f][1,7]naphthyridin-2-yl)ethyl)-3-methylphenoxy)methyl)phenyl)-1,1-difluoroethylphosphonic acid] | 6.43 |  |  |
| Cc1ccc2c(c1)nc(N)c1ncc(CCc3ccc(OCCCCCC(F)(F)P(=O)(O)O)cc3C)cc12 [Compound 24, 6-(4-(2-(5-amino-8-methylbenzo[f][1,7]naphthyridin-2-yl)ethyl)-3-methylphenoxy)-1,1-difluorohexylphosphonic acid] | 5.37 |  |  |
| Cc1ccc2c(c1)nc(N)c1ncc(CCc3ccc(OCCCCCCP(=O)(O)O)cc3C)cc12 [Compound 23, 6-(4-(2-(5-amino-8-methylbenzo[f][1,7]naphthyridin-2-yl)ethyl)-3-methylphenoxy)hexylphosphonic acid] | 6.10 |  |  |
| Cc1ccc2c(c1)nc(N)c1ncc(CCc3ccc(OCCOCCOCCP(=O)(O)O)cc3C)cc12 [Compound 26, 2-(2-(2-(4-(2-(5-amino-8-methylbenzo[f][1,7]naphthyridin-2-yl)ethyl)-3-methylphenoxy)ethoxy)ethoxy)ethylphosphonic acid] | 5.59 |  |  |
| Cc1ccc2c(c1)nc(N)c1ncc(CCc3ccc(OCCCCC(F)(F)P(=O)(O)O)cc3C)cc12 [Compound 4, 5-(4-(2-(5-amino-8-methylbenzo[f][1,7]naphthyridin-2-yl)ethyl)-3-methylphenoxy)-1,1-difluoropentylphosphonic acid] | 6.25 |  |  |
| Cc1cc(OCCCP(=O)(O)O)ccc1CCc1cnc2c(N)nc3cc(CCC(=O)O)ccc3c2c1 [Compound 15, 3-(5-amino-2-(2-methyl-4-(3-phosphonopropoxy)phenethyl)benzo[f][1,7]naphthyridin-8-yl)propanoic acid] | 7.19 |  |  |
| COc1ccc(CCc2cnc3c(N)nc4cc(/C=C(\F)P(=O)(O)O)ccc4c3c2)c(C)c1 [Compound 12, (E)-2-(5-Amino-2-(4-methoxy-2-methylphenethyl)benzo[f][1,7]naphthyridin-8-yl)-1-fluorovinylphosphonic acid] | 6.70 |  |  |
| Cc1cc(OCCOCCC(F)(F)P(=O)(O)O)ccc1CCc1cnc2c(N)nc3cc(CCC(=O)O)ccc3c2c1 [Compound 19, 3-(5-amino-2-(4-(2-(3,3-difluoro-3-phosphonopropoxy)ethoxy)-2-methylphenethyl)benzo[f][1,7]naphthyridin-8-yl)propanoic acid] |  | 96.0 |  |
